Activity calls are given as the source filed them.
Key:
[1] = target: Cell division cycle 7-related protein kinase (Homo sapiens, UniProt O00311); format: functional;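 further: value obtained from a kinome-wide kinase panel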
[2] = target: Cyclin-dependent kinase 9 (Homo sapiens, UniProt P50750); format: functional;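 further: value from the CDK9 entry of a kinome-spanning kinase panel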
[3] = target: Cyclin-dependent kinase 7 (Homo sapiens, UniProt P50613); format: functional;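 further: value comes from a kinome-wide kinase profiling panel in which CDK7 is one member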
HEK293 [4] = assay: HEK293T cell viability loss, resazurin readout – resazurin fluorescence, cytotoxicity control for NF-kB activator project, SAR follow-up (AID 493251); format: functional, cell-based; details: Homo sapiens
[5] = THP-1 cell cytotoxicity, cytotoxicity control, set 4 (AID 504911); format: functional; details: Mycobacterium tuberculosis
[6] = DRD fibroblast viability loss – cell-based, non-viral oncogenic, luminescence, dose response (AID 1934); format: functional; details: Homo sapiens
[7] = alpha-synuclein stem-loop luciferase translation blockers – H4 neuroglioma cells, luminescence, confirmation (AID 1988); format: functional, cell-based
[8] = Luminescence Cell-Based Dose Response HTS to Identify Inhibitors of 5'UTR Stem-Loop Driven Prion Protein mRNA Translation in H4 Neuroglioblastoma Cells. [Related pubchem assays: 1827 (Project Summary), 1813 (Primary HTS)]; format: functional
BJ [9] = assay: cells; format: functional, cell-based; details: Homo sapiens
BJ [10] = assay: BJ-TERT fibroblast viability loss – cell-based, RAS-independent, luminescence, dose response (AID 1933); format: functional; details: Homo sapiens
BJ [11] = assay: BJ-TERT-LT-ST fibroblast viability loss – cell-based, RAS-independent, luminescence, dose response (AID 1935); format: functional; details: Homo sapiens;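 further: BJ fibroblasts immortalized with TERT plus LT and ST oncogenes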
BJ [12] = assay: growth inhibition of engineered Ras-driven BJ cells – cell-based, alamar blue fluorescence, cherrypicked samples, dose response (AID 2631); format: functional; details: Homo sapiens;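 further: confirmatory dose-response assay in RAS-dependent BJ fibroblasts engineered with TERT, LT and ST, with cytotoxicity read by fluorescence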
[13] = luciferase reporter signal suppression in cells – H4 neuroglioma cells, luminescence, dose response (AID 1990); format: functional, cell-based
[14] = Trypanosoma cruzi growth suppression in host cells – NIH3T3 host cells, beta-gal luminescence, confirmation (AID 2044); format: functional, cell-based;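 further: intracellular parasites grown in NIH/3T3 mouse fibroblasts as host cells; luminescent beta-galactosidase reporter signal from transgenic T. cruzi replicating inside host cells; inhibitors lower the luminescence signal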
Protein Wnt-3a = Protein Wnt-3a (Mus musculus, UniProt P27467); assay: antagonism of Wnt3a pathway luciferase reporter – Wnt-LIGHT cells, luminescence, selectivity assay for Gli-SUFU antagonist project, dose response (AID 651570); format: functional; details: read-out: IC50_Mean;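 further: Wnt-LIGHT reporter cells stimulated with conditioned medium from Wnt3a-producing cells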
HEK293 [15] = assay: cells; format: functional, cell-based; details: Homo sapiens
[16] = NIH3T3 cell viability loss – ATP luminescence, mouse fibroblasts, counter-screen, dose response (AID 2010); format: functional, cell-based;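 further: cells exposed to compound for about 90 hours before reading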
HEK293 [17] = assay: cells; format: functional, cell-based; details: Homo sapiens; remark: listed apart in the source
HEK293 [18] = assay: inhibition of NOD1-driven NF-kB reporter – cell-based, luminescence, uHTS, primary screen (AID 1578); format: functional; details: Homo sapiens
HEK293 [19] = assay: NOD2 signaling inhibitors in MDP-stimulated cells, cell-based, uHTS, luminescence (AID 2001); format: functional; details: Homo sapiens
[20] = target: Nucleotide-binding oligomerization domain-containing protein 2 (Homo sapiens, UniProt Q9HC29); assay: inhibition of NOD2-driven NF-kB reporter – cell-based, luminescence, uHTS, HEK293 (AID 1566); format: functional
HEK293 [21] = assay: cells; format: functional, cell-based; details: Homo sapiens; remark: listed apart in the source
HEK293 [22] = assay: EBV LMP1 TES2 canonical NF-kB signalling blockers – cell-based, HEK293, luciferase, cherry-pick, dose response (AID 588343); format: functional; details: Homo sapiens

Cyclin-dependent kinase 9, sequence (P50750 whole entry): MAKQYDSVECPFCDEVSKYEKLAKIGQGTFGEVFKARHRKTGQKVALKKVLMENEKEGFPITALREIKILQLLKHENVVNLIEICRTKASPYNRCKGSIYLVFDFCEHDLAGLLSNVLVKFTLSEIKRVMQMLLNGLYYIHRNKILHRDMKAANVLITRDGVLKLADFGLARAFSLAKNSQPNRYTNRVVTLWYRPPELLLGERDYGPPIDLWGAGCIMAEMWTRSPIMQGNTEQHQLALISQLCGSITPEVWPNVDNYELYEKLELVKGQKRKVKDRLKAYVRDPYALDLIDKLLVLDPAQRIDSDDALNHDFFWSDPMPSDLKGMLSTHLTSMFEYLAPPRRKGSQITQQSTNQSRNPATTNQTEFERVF
Nucleotide-binding oligomerization domain-containing protein 2, sequence (Q9HC29 whole entry, the tested form may be a part): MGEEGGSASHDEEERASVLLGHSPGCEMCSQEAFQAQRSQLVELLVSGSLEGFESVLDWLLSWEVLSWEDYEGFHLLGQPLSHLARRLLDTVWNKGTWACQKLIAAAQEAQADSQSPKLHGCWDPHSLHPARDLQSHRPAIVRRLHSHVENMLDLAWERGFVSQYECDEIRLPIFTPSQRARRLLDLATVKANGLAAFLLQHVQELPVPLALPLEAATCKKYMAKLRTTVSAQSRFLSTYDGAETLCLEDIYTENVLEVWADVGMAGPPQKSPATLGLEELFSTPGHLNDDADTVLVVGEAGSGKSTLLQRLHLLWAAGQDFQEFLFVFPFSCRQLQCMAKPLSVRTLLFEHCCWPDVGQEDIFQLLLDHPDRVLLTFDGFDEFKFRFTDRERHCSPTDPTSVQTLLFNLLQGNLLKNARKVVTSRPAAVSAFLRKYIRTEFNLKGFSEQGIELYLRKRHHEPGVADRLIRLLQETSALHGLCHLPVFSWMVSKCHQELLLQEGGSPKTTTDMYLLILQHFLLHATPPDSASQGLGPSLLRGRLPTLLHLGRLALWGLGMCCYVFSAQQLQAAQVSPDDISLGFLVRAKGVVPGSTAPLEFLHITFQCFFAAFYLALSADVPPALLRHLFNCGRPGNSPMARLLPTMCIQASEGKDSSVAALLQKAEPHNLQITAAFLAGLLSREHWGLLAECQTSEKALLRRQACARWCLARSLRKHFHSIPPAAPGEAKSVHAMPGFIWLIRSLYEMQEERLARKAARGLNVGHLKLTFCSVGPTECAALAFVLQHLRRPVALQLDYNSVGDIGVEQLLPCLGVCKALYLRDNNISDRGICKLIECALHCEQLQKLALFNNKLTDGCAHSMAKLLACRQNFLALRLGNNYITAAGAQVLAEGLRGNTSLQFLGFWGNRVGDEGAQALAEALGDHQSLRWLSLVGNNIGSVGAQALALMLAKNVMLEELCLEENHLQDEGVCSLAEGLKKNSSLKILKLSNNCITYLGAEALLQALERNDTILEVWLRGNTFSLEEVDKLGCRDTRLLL
Cell division cycle 7-related protein kinase, sequence (O00311 whole entry): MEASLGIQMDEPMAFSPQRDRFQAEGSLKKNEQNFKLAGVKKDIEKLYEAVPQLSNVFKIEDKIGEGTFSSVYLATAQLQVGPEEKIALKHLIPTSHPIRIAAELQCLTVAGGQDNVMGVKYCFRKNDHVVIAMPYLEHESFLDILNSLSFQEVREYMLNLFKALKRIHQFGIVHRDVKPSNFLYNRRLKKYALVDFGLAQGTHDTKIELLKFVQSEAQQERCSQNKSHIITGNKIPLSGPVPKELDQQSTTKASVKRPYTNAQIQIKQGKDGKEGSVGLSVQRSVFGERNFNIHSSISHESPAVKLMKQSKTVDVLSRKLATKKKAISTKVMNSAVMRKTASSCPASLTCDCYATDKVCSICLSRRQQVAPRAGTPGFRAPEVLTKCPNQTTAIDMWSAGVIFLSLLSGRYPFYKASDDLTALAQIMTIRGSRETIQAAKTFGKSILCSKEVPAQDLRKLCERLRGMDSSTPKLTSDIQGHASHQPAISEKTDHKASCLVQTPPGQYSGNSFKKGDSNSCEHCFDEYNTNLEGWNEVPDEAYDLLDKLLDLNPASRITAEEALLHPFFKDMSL
Cyclin-dependent kinase 7, sequence (P50613 whole entry): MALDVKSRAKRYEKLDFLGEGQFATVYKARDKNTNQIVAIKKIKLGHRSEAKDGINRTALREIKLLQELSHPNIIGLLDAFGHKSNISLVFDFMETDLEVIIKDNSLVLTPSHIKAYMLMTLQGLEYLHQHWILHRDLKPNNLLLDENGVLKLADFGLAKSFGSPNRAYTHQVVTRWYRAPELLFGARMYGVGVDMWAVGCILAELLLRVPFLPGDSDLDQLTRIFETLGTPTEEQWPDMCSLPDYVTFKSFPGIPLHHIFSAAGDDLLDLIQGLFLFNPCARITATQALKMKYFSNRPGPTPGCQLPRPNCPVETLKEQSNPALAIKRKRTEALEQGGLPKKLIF
Protein Wnt-3a, sequence (P27467 whole entry): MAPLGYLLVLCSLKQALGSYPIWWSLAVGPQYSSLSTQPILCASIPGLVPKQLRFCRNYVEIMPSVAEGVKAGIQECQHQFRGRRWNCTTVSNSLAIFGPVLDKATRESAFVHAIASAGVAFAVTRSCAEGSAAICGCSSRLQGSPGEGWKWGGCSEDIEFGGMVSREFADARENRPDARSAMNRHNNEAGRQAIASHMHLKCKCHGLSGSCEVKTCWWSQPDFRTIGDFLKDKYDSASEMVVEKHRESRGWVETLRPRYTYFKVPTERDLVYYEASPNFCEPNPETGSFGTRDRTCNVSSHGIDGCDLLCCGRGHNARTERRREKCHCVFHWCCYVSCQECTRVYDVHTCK

Compound: NC(=O)c1ccc(-c2ccncc2)cc1N1CCCC1
- Ki [1]: 126 nM (active)
- Ki [2]: 1000 nM (active)
- Ki [3]: > 2510 nM (inactive)

Compound: COC(=O)CCc1nc(-c2ccc(C(C)(C)C)cc2)no1
- IC50 (HEK293 [4]): > 80000 nM (inactive)

Compound: O=C(CSc1ncccn1)NC1CCCCC1
- CC50 [5]: > 100000 nM (active)

Compound: N#CC1=C(N)Oc2cc(N)ccc2C1c1cccc(Br)c1 (stereo not drawn)
- EC50 [6]: 658 nM (active)
- EC50 [7]: 180 nM (active)
- EC50 [8]: 502 nM (active)
- EC50 (BJ [9]): 702 nM (active)
- EC50 (BJ [10]): 1200 nM (active)
- EC50 (BJ [11]): 859 nM (inconclusive)
- EC50 (BJ [12]): 182 nM (active)
- EC50 [13]: 1830 nM (active)

Compound: C=CCn1c(O)c(N=NC(=S)Nc2cccc(C)c2)c2ccccc21
- EC50 [14]: 558 nM (active)
- IC50 (Protein Wnt-3a): 29200 nM (inactive)
- IC50 (HEK293 [15]): 2970 nM (active)
- EC50 [16]: 3440 nM (active)
- IC50 (HEK293 [17]): > 20000 nM (inactive)
- EC50 (HEK293 [18]): 1090 nM (active)
- IC50 (HEK293 [19]): 1180 nM (active)
- EC50 [20]: 16300 nM (active)
- IC50 (HEK293 [21]): > 20000 nM (inactive)
- AC50 (HEK293 [22]): 1460 nM (active)
